Laboratory results as given in the Kinase Knowledgebase extract (Sharma et al. 2016).

Experiments:
[1] = molecular target: EGFR (human) (UniProt P00533)
[2] = molecular target: EGFR (human), P00533 [L858R]
[3] = molecular target: EGFR (Human), P00533 [T790M/L858R]
[4] = molecular target: EGFR (Human), P00533 [Assessment of EGFR-Del T790M Dependent Cell Proliferation in BaF3 Cells]
[5] = molecular target: EGFR (Human), P00533 [T790M/L858R]; settings: baf3

Measured: IC50

Sequence of EGFR (human) (P00533 whole entry, looked up): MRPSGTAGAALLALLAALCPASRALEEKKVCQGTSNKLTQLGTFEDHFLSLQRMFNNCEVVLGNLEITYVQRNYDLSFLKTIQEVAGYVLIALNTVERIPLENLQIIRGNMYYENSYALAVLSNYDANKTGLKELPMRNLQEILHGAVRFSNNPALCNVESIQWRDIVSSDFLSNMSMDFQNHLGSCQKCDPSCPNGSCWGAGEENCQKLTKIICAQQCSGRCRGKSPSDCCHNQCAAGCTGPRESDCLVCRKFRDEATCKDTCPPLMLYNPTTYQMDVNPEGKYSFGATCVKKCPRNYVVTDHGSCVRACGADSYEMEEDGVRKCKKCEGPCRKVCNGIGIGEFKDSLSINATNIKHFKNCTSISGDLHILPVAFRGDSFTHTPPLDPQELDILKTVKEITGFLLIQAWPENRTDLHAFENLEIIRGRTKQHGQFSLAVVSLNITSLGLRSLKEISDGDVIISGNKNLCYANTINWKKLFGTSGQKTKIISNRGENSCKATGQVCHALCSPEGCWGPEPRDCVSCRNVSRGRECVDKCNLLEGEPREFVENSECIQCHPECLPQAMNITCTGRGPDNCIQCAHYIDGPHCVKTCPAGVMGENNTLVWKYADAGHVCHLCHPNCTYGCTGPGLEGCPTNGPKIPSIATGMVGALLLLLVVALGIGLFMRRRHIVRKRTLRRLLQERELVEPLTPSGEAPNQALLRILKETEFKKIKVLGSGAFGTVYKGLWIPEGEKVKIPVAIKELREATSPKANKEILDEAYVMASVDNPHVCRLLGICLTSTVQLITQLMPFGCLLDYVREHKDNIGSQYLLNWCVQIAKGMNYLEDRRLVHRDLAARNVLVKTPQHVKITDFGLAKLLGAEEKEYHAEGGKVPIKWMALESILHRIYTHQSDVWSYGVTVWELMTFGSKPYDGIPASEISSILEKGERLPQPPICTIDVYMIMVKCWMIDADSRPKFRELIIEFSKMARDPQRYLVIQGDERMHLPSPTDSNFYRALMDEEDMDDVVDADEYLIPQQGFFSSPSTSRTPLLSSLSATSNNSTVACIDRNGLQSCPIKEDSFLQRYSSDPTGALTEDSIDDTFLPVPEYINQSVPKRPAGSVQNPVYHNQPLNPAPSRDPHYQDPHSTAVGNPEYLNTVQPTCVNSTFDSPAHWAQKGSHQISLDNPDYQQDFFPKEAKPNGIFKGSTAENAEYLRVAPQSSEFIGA
Sequence of EGFR (Human), P00533 [Assessment of EGFR-Del T790M Dependent Cell Proliferation in BaF3 Cells] (P00533 whole entry, looked up, stated change not applied): as the sequence (P00533 whole entry, looked up) above
Sequence of EGFR (human), P00533 [L858R] (P00533 whole entry L858R, looked up): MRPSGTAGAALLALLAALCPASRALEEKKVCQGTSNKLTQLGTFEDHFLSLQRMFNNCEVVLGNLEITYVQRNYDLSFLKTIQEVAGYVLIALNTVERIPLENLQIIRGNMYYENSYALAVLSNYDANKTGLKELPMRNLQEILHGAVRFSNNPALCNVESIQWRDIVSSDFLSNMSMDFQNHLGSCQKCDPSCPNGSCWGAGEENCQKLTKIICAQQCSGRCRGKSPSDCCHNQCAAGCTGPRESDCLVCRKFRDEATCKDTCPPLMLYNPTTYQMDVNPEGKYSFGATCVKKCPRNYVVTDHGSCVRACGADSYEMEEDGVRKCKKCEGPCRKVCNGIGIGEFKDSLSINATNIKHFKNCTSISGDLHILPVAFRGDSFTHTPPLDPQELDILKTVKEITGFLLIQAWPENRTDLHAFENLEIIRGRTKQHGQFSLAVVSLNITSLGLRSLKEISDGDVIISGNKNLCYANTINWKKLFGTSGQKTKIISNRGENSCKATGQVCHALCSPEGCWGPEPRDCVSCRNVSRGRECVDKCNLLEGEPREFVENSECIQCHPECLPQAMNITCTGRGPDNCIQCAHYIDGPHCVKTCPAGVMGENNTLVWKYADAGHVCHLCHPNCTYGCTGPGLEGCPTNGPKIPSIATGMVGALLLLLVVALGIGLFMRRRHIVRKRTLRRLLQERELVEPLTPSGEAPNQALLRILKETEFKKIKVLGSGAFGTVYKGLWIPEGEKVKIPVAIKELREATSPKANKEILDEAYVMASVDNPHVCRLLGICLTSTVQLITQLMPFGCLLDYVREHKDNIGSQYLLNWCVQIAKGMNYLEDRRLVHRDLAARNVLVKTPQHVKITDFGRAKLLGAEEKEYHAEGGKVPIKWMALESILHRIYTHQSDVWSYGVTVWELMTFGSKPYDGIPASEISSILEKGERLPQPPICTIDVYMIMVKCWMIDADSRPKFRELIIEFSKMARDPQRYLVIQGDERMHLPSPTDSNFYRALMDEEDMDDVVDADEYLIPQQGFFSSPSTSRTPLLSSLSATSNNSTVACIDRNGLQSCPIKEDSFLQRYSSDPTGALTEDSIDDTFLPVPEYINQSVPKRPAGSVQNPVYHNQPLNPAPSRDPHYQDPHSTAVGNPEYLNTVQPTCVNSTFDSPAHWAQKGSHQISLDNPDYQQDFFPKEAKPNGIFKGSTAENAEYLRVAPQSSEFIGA
Sequence of EGFR (Human), P00533 [T790M/L858R] (P00533 whole entry T790M/L858R, looked up): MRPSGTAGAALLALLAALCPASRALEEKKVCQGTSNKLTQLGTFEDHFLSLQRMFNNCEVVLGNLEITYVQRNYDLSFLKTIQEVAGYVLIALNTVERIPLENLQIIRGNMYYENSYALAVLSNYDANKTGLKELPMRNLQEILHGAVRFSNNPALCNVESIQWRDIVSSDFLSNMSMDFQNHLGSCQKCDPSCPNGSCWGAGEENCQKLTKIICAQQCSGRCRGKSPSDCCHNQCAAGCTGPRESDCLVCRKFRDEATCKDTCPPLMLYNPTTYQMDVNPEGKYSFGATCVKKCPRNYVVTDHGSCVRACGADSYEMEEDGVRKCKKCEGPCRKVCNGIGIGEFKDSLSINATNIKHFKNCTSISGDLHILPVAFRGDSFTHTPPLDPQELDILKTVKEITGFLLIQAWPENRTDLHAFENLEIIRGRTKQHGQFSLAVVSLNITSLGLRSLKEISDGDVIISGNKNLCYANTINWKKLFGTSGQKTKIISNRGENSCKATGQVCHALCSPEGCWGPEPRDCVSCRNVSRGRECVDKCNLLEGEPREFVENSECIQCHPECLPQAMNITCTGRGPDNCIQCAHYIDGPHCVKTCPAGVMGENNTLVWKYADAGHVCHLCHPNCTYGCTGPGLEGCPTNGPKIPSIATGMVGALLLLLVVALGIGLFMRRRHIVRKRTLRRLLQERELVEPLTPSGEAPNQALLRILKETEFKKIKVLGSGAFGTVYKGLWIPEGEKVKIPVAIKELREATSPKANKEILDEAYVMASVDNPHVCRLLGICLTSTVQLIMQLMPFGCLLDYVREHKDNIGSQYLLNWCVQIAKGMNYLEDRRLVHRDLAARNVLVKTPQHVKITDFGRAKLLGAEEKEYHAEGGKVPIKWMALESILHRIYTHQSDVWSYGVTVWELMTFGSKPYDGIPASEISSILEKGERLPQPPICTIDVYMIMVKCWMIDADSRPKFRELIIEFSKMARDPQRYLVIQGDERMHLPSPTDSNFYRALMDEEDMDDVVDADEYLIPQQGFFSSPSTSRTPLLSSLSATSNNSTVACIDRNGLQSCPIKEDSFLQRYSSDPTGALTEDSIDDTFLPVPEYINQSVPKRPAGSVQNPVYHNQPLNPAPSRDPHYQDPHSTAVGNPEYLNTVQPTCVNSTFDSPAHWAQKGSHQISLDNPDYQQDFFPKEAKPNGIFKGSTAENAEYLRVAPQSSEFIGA

C=CC(=O)Nc1cc(Nc2ncc(Cl)c(Nc3ccccc3P(C)(C)=O)n2)c(OC)cc1OC(COC)CN(C)C (stereo not given)
< 50 nM: all assays above

C=CC(=O)Nc1cc(Nc2ncc(Cl)c(Nc3ccccc3P(C)(C)=O)n2)c(OC)cc1C#CC(C)(C)N(CC)CC
< 50 nM: all assays above

Cc1ccc(NC(=O)CCl)cc1Nc1ncc(Cl)c(Nc2ccccc2P(C)(C)=O)n1
< 50 nM: all assays above

C=CC(=O)Nc1cc(Nc2ncc(Cl)c(Nc3ccccc3P(C)(C)=O)n2)c(OC)cc1N1CCC(N(C)C)C1 (stereo not given)
< 50 nM: all assays above

COc1cc(N2CCOCC2)c(NC(=O)C#CCCN(C)C)cc1Nc1ncc(Cl)c(Nc2ccccc2P(C)(C)=O)n1
< 50 nM: all assays above

C=CC(=O)Nc1cc(Nc2ncc(Cl)c(Nc3ccccc3P(C)(C)=O)n2)c(Cl)cc1OC(COC)CN(C)C (stereo not given)
< 50 nM: all assays above

C=CC(=O)Nc1cc(Nc2ncc(Cl)c(Nc3ccccc3P(C)(C)=O)n2)c(OC)cc1C#CCN(C)C1CCCC1
< 50 nM: all assays above

C=CC(=O)Nc1cc(Nc2ncc(Cl)c(Nc3ccccc3P(C)(C)=O)n2)c(OC)cc1N(C)CCN(C)CCF
< 50 nM: all assays above

COc1cc(F)c(NC(=O)CCl)cc1Nc1ncc(Cl)c(Nc2ccccc2P(C)(C)=O)n1
< 50 nM: all assays above

COc1ccc(NC(=O)C#CCN(C)C)cc1Nc1ncc(Cl)c(Nc2ccccc2P(C)(C)=O)n1
< 50 nM: all assays above

C=C(CN1CCC(N2CCOCC2)CC1)C(=O)Nc1ccc(OC)c(Nc2ncc(Cl)c(Nc3ccccc3P(C)(C)=O)n2)c1
< 50 nM: all assays above

C=CC(=O)Nc1cc(Nc2ncc(Cl)c(Nc3ccccc3P(C)(C)=O)n2)c(OC)cc1C#CCN1CCN(C)CC1
101 to 250 nM: [5]
< 50 nM: all other assays above

C=CC(=O)Nc1cc(Nc2ncc(Cl)c(Nc3ccccc3P(C)(C)=O)n2)c(OC)cc1C#CCNC
< 50 nM: all assays above

COc1cc(F)c(NC(=O)/C=C/Cl)cc1Nc1ncc(Cl)c(Nc2ccccc2P(C)(C)=O)n1
< 50 nM: all assays above

COc1cc(N2CCOCC2)c(NC(=O)C#CCN(C)C)cc1Nc1ncc(Cl)c(Nc2ccccc2P(C)(C)=O)n1
< 50 nM: all assays above

C=CC(=O)Nc1cc(Nc2ncc(Cl)c(Nc3ccccc3P(C)(C)=O)n2)c(OC)cc1C#CCN1CCCC1
< 50 nM: all assays above

C=CC(=O)Nc1cc(Nc2ncc(Cl)c(Nc3ccccc3P(C)(C)=O)n2)c(OC)cc1N1CC[C@@H](N(C)C)C1
< 50 nM: all assays above

C=CC(=O)Nc1cc(Nc2ncc(Cl)c(Nc3ccccc3P(C)(C)=O)n2)c(OC)cc1N1CCC(N2CCOCC2)CC1
< 50 nM: all assays above

C=CC(=O)Nc1cc(Nc2ncc(Cl)c(Nc3ccccc3P(C)(C)=O)n2)c(OC)cc1O[C@@H](COC)CN(C)C
< 50 nM: all assays above

C=C(CN1CCC(O)C1)C(=O)Nc1ccc(OC)c(Nc2ncc(Cl)c(Nc3ccccc3P(C)(C)=O)n2)c1 (stereo not given)
< 50 nM: all assays above

C=CC(=O)Nc1cc(Nc2ncc(C3CC3)c(Nc3ccccc3P(C)(C)=O)n2)c(OC)cc1N(C)CCN(CC)CC
< 50 nM: all assays above

C=CC(=O)Nc1cc(Nc2ncc(Cl)c(Nc3ccccc3P(C)(C)=O)n2)c(OC)cc1N1CC(N2CCCC2)C1
< 50 nM: all assays above

C=C(CN1CCOCC1)C(=O)Nc1ccc(OC)c(Nc2ncc(Cl)c(Nc3ccccc3P(C)(C)=O)n2)c1
< 50 nM: all assays above

C=CC(=O)Nc1cc(Nc2ncc(Cl)c(Nc3ccccc3P(C)(C)=O)n2)c(OC)cc1C#CC(C)(C)N(C)C
< 50 nM: all assays above

COCC#CC(=O)Nc1cc(Nc2ncc(Cl)c(Nc3ccccc3P(C)(C)=O)n2)c(OC)cc1N1CCC(N(C)C)C1 (stereo not given)
< 50 nM: all assays above

C=C(CN1CCN(S(C)(=O)=O)CC1)C(=O)Nc1ccc(OC)c(Nc2ncc(Cl)c(Nc3ccccc3P(C)(C)=O)n2)c1
< 50 nM: all assays above

C=CC(=O)Nc1cc(Nc2ncc(Cl)c(Nc3ccccc3P(C)(C)=O)n2)c(OC)cc1N1CCC(N2CCCN(C)CC2)CC1
50 to 100 nM: [4]
101 to 250 nM: [5]
< 50 nM: all other assays above

COc1ccc(NC(=O)/C=C/CN2CCCCC2)cc1Nc1ncc(Cl)c(Nc2ccccc2P(C)(C)=O)n1
< 50 nM: all assays above

C=CC(=O)Nc1cc(Nc2ncc(Cl)c(Nc3ccccc3P(C)(C)=O)n2)c(OC)cc1C#CCN1CCCCCC1
< 50 nM: all assays above

C=CC(=O)Nc1cc(Nc2ncc(Cl)c(Nc3ccccc3P(C)(C)=O)n2)c(OC)cc1N1CCCC(N(C)C)C1 (stereo not given)
< 50 nM: all assays above

C=CC(=O)Nc1cc(Nc2ncc(Cl)c(Nc3ccccc3P(C)(C)=O)n2)c(OC)cc1C#CCCN(C)C
< 50 nM: all assays above

C=CC(=O)Nc1cc(Nc2ncc(Cl)c(Nc3ccccc3P(C)(C)=O)n2)c(OC)cc1C#CC(C)(C)N
< 50 nM: all assays above

COc1cc(N2CCOCC2)c(NC(=O)C#CCCN2CCN(C)CC2)cc1Nc1ncc(Cl)c(Nc2ccccc2P(C)(C)=O)n1
< 50 nM: all assays above
